“And” between values parts separate entries of the source, which are not always exact repeats. Identical values can stand only once. Values belong to the compound of their own block, whether it stands above or below them.
What was measured:
[1] = test system: ELK1-dependent promoter activation by AR; experiment: Primary screening assay: luciferase reporter in recombinant HeLa cells (Gal4-TATA-Luc, Gal4-ELK1, AR) treated with testosterone; assay type: cell-based, human; settings: for inhibition of ELK1-dependent promoter activation by AR (in words): testosterone-treated recombinant HeLa cells, luciferase
From the text: FIG. 6A is a schematic diagram of the reporter system for the primary screening assay. Recombinant HeLa cells used in this assay harbor the Gal4-TATA-Luc promoter-reporter, and stably express a Gal4-ELK1 fusion protein as well as the androgen receptor (AR). Gal4-ELK1 is bound to the Gal4 elements in the promoter. In the absence of testosterone (small circle), AR is localized in the cytoplasm. When testosterone is present it binds to AR causing AR to translocate to the nucleus where it then binds to Gal4-ELK1 and activates the downstream luciferase reporter.
HeLa HLR cells obtained from Dr. Johann Hofman (Innsbruck Medical University), which were originally designed to serve as a cell-based assay system to measure modulation of MAPK activity. HeLa HLR cells have a stably integrated minimal promoter-luciferase reporter containing five upstream Gal4 elements (Gal4-TATA-Luc) and also constitutively express a Gal4-ELK1 fusion protein in which the Gal4 DNA binding domain is substituted for the ETS DNA binding domain of ELK1. In order to produce recombinant cell lines for high throughput screening and counter screening of small molecule libraries, HeLa HLR were stably transduced with a vector expressing the full-length AR. A sequence encoding the full length AR (SEQ ID NO:9) was subcloned from the pCMV expression vector (Origene) into the pCDH-CMV-MCS-EF1-Puro cDNA Cloning and Expression Vector (System Biosciences) at NheI (upstream) and BamHI (downstream) sites. The lentiviral vector expressing full length AR was then packaged in lentivirus and the HeLa HLR cells were infected as described below in the sub-section “Lentivirus-mediated-Transduction.” After 72 hours (h) of infection, 2 ug/mL of puromycin was added to the culture medium to select for the transduced cells. The cells were plated at low density for colony formation (20-40 colonies) in a 100 mm dish. Clonal cells were isolated using cloning cylinders from CORNING (Cat. #3166-8). The selected clones were further expanded and then tested for luciferase induction by testosterone. The clone that gave the greatest luciferase signal to noise ratio in response to testosterone treatment was then chosen for use in the primary screening assay for high throughput small molecule screening.
For high throughput screening, recombinant primary screening cells were first depleted of hormone by growing them for 24h in medium in which the serum used was heat-inactivated and charcoal-stripped. The cells were then plated in 384-well white flat bottom plates (5,000 cells/well) (Corning Product #3570) using a Multidrop (Thermo Fisher Scientific, Waltham, Mass.). The plates were then incubated for 24h prior to adding test compounds. The following day test compounds from the LOPAC, Prestwick, or Maybridge Hitfinder libraries were added precisely in a 0.2 μL volume in the test wells using a Biomek FX liquid handler (Beckman Coutler, Break, Calif.) to achieve final media concentration of 10 μM of each test compound. Using the Multidrop (ThermoLab Systems, Helsinki, Finland), testosterone was added in addition to the test compounds to achieve a final media concentration of 10 nM. As the test compounds were re-constituted from powder stocks using dimethyl sulfoxide (DMSO) as the solvent, the final media concentration of DMSO was 0.4% v/v. For the assay negative control on each plate, one row of wells on each plate contained 10 nM testosterone and 0.4% v/v of DMSO. For the assay positive control on each plate, one row of wells on each plate contained 10 nM testosterone and 10 uM enzalutamide dissolved in DMSO (0.4% v/v of DMSO in the wells). The plates were incubated for 24h at 37° C. in 5% CO2. The medium was then aspirated leaving a residual volume 10 μl using an Elx 405-plate washer (Bio Tek U.S.). Then, 10 uL of the assay reagent Bright-Glo (Promega Corp., Madison Wis.) was added to each well. […]

AR negative cell lines = experiment: Toxicity to AR negative cell lines; settings: at low doses, concentration range of 1 uM-10 uM
[2] = test system: ARE-dependent promoter activation by AR; experiment: Counter screening assay: ARE-luciferase reporter in recombinant HeLa cells expressing AR; assay type: cell-based, human; settings: testosterone-treated recombinant HeLa cells
From the text: FIG. 6B is a schematic diagram of the reporter system for the counter screening assay. Recombinant HeLa cells used in this assay are identical to the primary screening cells except for the absence of Gal4-ELK1 and substitution of the Gal4 elements in the promoter with a canonical ARE. In this case, testosterone causes cytosolic AR to translocate to the nucleus and bind to the ARE in the promoter resulting in activation of the luciferase reporter.
The cells generated for counter screening, are HeLa cells stably transduced with a lentiviral plasmid construct containing a minimal promoter-luciferase reporter and an upstream androgen response element (ARE) sequence. These HeLa cells were also transduced with a lentiviral expression plasmid encoding the full-length AR. These lentiviral constructs were made as follows. Custom synthesized PCR primers were used to amplify and clone the ARE sequence from a pG5luc plasmid construct containing an ARE sequence element into the pGreenFire1 ™-mCMV-EF1-Neo (Plasmid) at SpeI (upstream) and BamHI (downstream) sites. pG5luc Vector is well known and the complete sequence has NCBI accession #AF264724. The ARE containing pG5luc plasmid is described in detail in Patki et al., 2013, J Biol Chem, 288:11047-11065. The lentiviral vector expressing ARE-luciferase reporter was then packaged in lentivirus and parental HeLa cells were infected as described below under the heading “Lentivirus-mediated-Transduction.” After 72h of infection, 400 ug/mL of Geneticin was added to the culture medium to select for the transduced cells. These cells were then infected with the lentivirus containing the full length AR expression plasmid described above. After 72h of infection, 2 ug/mL of Puromycin was added to the culture medium to select for the transduced cells. Clonal cells harboring both the ARE-promoter-luciferase reporter and also stably expressing AR were then isolated using cloning cylinders as described above. The selected clones were further expanded and then tested for luciferase induction by testosterone. The clone that gave the greatest luciferase signal to noise ratio in response to testosterone treatment was then chosen for use in the counter screening assay for high throughput small molecule screening. All of the plasmid constructs generated above were sequenced to verify DNA sequences before, the constructs were used.
For high throughput screening, recombinant primary screening cells were first depleted of hormone by growing them for 24h in medium in which the serum used was heat-inactivated and charcoal-stripped. The cells were then plated in 384-well white flat bottom plates (5,000 cells/well) (Corning Product #3570) using a Multidrop (Thermo Fisher Scientific, Waltham, Mass.). […]

[3] = Metabolism in pooled human liver microsomes (HLM) with or without NADPH; assay type: in vitro ADME
Method: BD UltraPool human liver microsomes (HLM) 150 and the NAPDH regenerating system solution A and B were obtained from Corning Inc. Pooled HLM were used to determine percentage of metabolism of 5,3′-Dihydroxyflavone and 5,3-Dihydroxy-4′-methylflavone. The compounds (20 μM) were co-incubated with HLM (0.05 mg/ml) in the presence or absence of NAPDH for 30 minutes in a 37° C. water bath. At the end of the microsome reaction, the reaction was quenched with 1000 μl ethyl acetate. The mixture was vortexed and centrifuged at 13,000 rpm for 15 minutes, the supernatant was then subjected to high-performance liquid chromatography with tandem mass spectrometry ([…]) analysis.

22Rv1 cells = experiment: Cell monolayer growth assay (MTT); assay type: cell-based, human; settings: enzalutamide up to 20 uM
Method: Twenty four hours after plating the 22Rv1 cells, they were treated with the indicated concentrations of KCI807 (FIG. 4C) or with the indicated concentrations of enzalutamide (ENZ) (FIG. 4D).
Twenty four hours after plating the cells, they were treated with the indicated concentrations of the compound.
FIG. 16D is a graph showing the effect of 5′-Fluoro-5,3′-Dihydroxyflavone at various concentrations on growth of 22Rv1 cells.
Cells were trypsinized and 3000-4000 cells/well were seeded in 96-well plates coated with poly-D-lysine. The cells were seeded in phenol red-free medium supplemented with 10% FBS, 100 units/ml penicillin, 100 μg/ml streptomycin, 2 mM L-glutamine mixture and sodium pyruvate (1 mM) for LNCaP cells and phenol red-free medium supplemented with 10% FBS, 100 units/ml penicillin, 100 μg/ml streptomycin and 2 mM L-glutamine mixture for VCaP, 22Rv1, DU145, HeLa, HEK293 and H1650 cells. The cells were grown at 37° C. in 5% CO2. Twenty four hours after seeding in the 96-well plates, the cells were treated with the indicated concentration of KCI807 or DMSO (vehicle). The cells were re-treated on Day 3 by removing half the volume of medium and replacing it with fresh treated medium. Cell viability was determined using the MTT assay from day zero until day five. MTT (10 μL, 5 mg/mL) was added to each well and incubated for 2h at 37° C. The formazan crystal sediments were dissolved in 100 μL of DMSO, and the absorbance at 570 nm was measured using the BioTek Synergy 2 Microplate Reader (BioTek, Winooski, Vt.). The assay was conducted in sextuplicate wells and values were normalized to day zero.

[4] = HLM 0.05 mg/ml, 30 minutes, 37° C.

Structure (SMILES): O=c1cc(-c2cc(O)cc(F)c2)oc2cc(F)cc(O)c12 [5′,7-diflouro-5,3′-dihydroxyflavone]
- inhibition of ELK1-dependent promoter activation by AR (in words) [1]: inhibited
- toxicity to AR negative cell lines (AR negative cell lines): toxic
- inhibition of ARE-dependent promoter activation by AR (in words) [2]: inhibited

Structure (SMILES): O=c1cc(-c2cccc(O)c2)oc2cc(F)cc(O)c12 [7-Fluoro-5,3′-dihydroxyflavone]
- inhibition of ELK1-dependent promoter activation by AR (in words) [1]: inhibited
- inhibition of ARE-dependent promoter activation by AR (in words) [2]: inhibited

- mean compound concentration, Control (absence of NADPH) [3, 4]: 1774 nM
- mean compound concentration, NADPH treated [3, 4]: 1549 nM
- percentage metabolized (%) ([3]; HLM 0.05 mg/ml, NADPH, 30 minutes, 37° C.): 12.7%
- reduction of metabolism in human liver microsomes relative to 5,3′-dihydroxyflavone ([3]; methyl group substitution on the 4′ carbon): 50%
Structure (SMILES): Cc1ccc(-c2cc(=O)c3c(O)cccc3o2)cc1O [4′-methyl-5,3′-dihydroxyflavone, 5,3′-dihydroxy-4′-methylflavone]
- compound concentration after HLM incubation, Control (absence of NADPH), replicate [3, 4]: 1789 nM and 1770 nM and 1757 nM and 1773 nM and 1776 nM and 1782 nM
- compound concentration after HLM incubation, NADPH treated, replicate [3, 4]: 1491 nM and 1513 nM and 1639 nM and 1651 nM and 1498 nM and 1501 nM
- growth inhibition of 22Rv1 cells (22Rv1 cells): retained its ability to inhibit growth

Structure (SMILES): O=c1cc(-c2ccc(O)c(O)c2)oc2cc(O)cc(O)c12 [Hit1, 5,7,3′,4′-tetrahydroxyflavone]
- inhibition at 10 µM ([1]; Homo sapiens, HeLa, compound concentration of 10 μM, read-out: inhibition in the primary screen): 80 to 100%
- inhibition of ARE-dependent promoter activation by AR (in words) [2]: virtual absence of an effect

Structure (SMILES): COc1c(-c2ccc(O)c(O)c2)oc2cc(O)cc(O)c2c1=O [5,7,3′,4′-tetrahydroxy-3-methoxyflavone]
- inhibition of ELK1-dependent promoter activation by AR (in words) [1]: lack of inhibition

Source: patent US11185527B2, “Methods and compositions relating to steroid hormone receptor-dependent cancers” (Wayne State University, priority 2017, dated 2021)
